Measurements as given in patent publication US20240409585A1, “MACROCYCLIC IMMUNOMODULATORS” (priority 2021, published 2024).
Bridge positions count the residues as written; N and C are the ends. Square brackets hold non-standard residues; d marks the D form. Peptide text beside a SMILES is read from it. * marks the point of attachment. Trp(7-Cl) = N[C@@H](Cc1c[nH]c2c(Cl)cccc12)C(=O)O; Bip = N[C@@H](Cc1ccc(-c2ccccc2)cc1)C(=O)O; Phe(3-OMe) = COc1cccc(C[C@H](N)C(=O)O)c1; Phe(3-Me) = Cc1cccc(C[C@H](N)C(=O)O)c1; Val(3-OH) = CC(C)(O)[C@H](N)C(=O)O; 3Pal = N[C@@H](Cc1cccnc1)C(=O)O; 4Pal = N[C@@H](Cc1ccncc1)C(=O)O; Cha = N[C@@H](CC1CCCCC1)C(=O)O; Cit = NC(=O)NCCC[C@H](N)C(=O)O; Carboxymethyl = O=C(O)C*; NMeA = CN[C@@H](C)C(=O)O; Orn = NCCC[C@H](N)C(=O)O; Pra = C#CC[C@H](N)C(=O)O; Dab = NCC[C@H](N)C(=O)O; Dap = NC[C@H](N)C(=O)O

The compounds below were run against T1, PE-labeled human PD-L1-Ig binding to Jurkat cell line over-expressing human PD-1 (Jurkat-PD-1) (Homo sapiens, UniProt Q15116) (assay: Jurkat-PD-1 Cell Binding High-Content Screening Assay (CBA): Method 1). Details: Jurkat-hPD-1 cells, PE-labeled PD-L1-Ig 20 nM final; read-out: Jurkat HPDL1 PD1 IC50 (uM) (Method 1).
T1 construct: expressed in transfected cells; host or cells: Jurkat
T1 sequence (Q15116 25-288): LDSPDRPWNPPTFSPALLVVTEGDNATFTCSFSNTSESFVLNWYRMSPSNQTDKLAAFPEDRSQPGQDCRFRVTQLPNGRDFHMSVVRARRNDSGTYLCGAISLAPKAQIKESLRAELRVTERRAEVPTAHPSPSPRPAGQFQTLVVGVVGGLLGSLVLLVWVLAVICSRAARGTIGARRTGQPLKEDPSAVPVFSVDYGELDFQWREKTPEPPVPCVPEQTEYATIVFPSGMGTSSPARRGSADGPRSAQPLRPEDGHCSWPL

Question: Which IC50 does the source give for `CC[C@H](C)[C@@H]1NC(=O)[C@H](Cc2ccc(-c3ccccc3)cc2)NC(=O)[C@H](C(C)(C)O)NC(=O)[C@H](Cc2cccc(C)c2)NC(=O)[C@H](CC(=O)O)NC(=O)[C@H](Cc2ccc(O)cc2)NC(=O)[C@H](CC(N)=O)NC(=O)CSC[C@@H](C(=O)N[C@H](C)C(N)=O)NC(=O)[C@H]([C@@H](C)O)NC(=O)[C@H](C(C)(C)O)NC(=O)[C@H](CC2CCCCC2)NC(=O)[C@H](CCN)NC(=O)[C@@H](CC(C)C)NC(=O)[C@H](C)N(C)C1=O` [Compound 1694] ({CH2CO}-NYD[Phe(3-Me)][Val(3-OH)][Bip]I[NMeA][dL][Dab][Cha][Val(3-OH)]TC[dA]-NH2; thioether N-14) here?
Answer: 0.1 µM

Question: For `CC(C)C[C@@H]1NC(=O)[C@H](Cc2c[nH]c3ccccc23)NC(=O)[C@H](CC(=O)O)NC(=O)[C@H](Cc2ccc(O)cc2)NC(=O)[C@H](Cc2ccccc2)NC(=O)CSC[C@@H](C(=O)N[C@@H](C)C(N)=O)NC(=O)[C@H](CO)NC(=O)[C@H](CN)NC(=O)[C@H](CC(C)C)NC(=O)[C@H](CC(N)=O)NC(=O)[C@@H](C)NC(=O)[C@H](C)N(C)C(=O)[C@H](C(C)C)NC(=O)[C@H](Cc2ccc(-c3ccccc3)cc2)NC1=O` [Compound 1532] ({CH2CO}-FYDWL[Bip]V[NMeA][dA]NL[Dap]SCA-NH2; thioether N-14), which IC50 is on record?
Answer: 0.17 µM

Question: How did the IC50 turn out when `Cc1cccc(C[C@@H]2NC(=O)[C@H](CC(N)=O)NC(=O)CSC[C@@H](C(=O)N[C@@H](C)C(N)=O)NC(=O)[C@H]([C@@H](C)O)NC(=O)[C@H](C(C)C)NC(=O)[C@H](CC(C)C)NC(=O)[C@H](CCN)NC(=O)[C@@H](CC(C)C)NC(=O)[C@H](C)N(C)C(=O)[C@H](CCCNC(=N)N)NC(=O)[C@H](Cc3ccc(-c4ccccc4)cc3)NC(=O)[C@H](C(C)C)NC(=O)[C@H](Cc3c[nH]c4ccccc34)NC(=O)[C@H](CC(=O)O)NC2=O)c1` [Compound 1305] ({CH2CO}-N[Phe(3-Me)]DWV[Bip]R[NMeA][dL][Dab]LVTCA-NH2; thioether N-14) was run?
Answer: 0.2 µM

Question: How did the IC50 turn out when `CC(C)C[C@@H]1NC(=O)[C@H](Cc2c[nH]c3ccccc23)NC(=O)[C@H](CC(=O)O)NC(=O)[C@H](Cc2ccc(O)cc2)NC(=O)[C@H](Cc2cccnc2)NC(=O)CSC[C@@H](C(=O)NCC(N)=O)NC(=O)[C@H](CO)NC(=O)[C@H](C(C)C)NC(=O)[C@H](CC(C)C)NC(=O)[C@H](CC(N)=O)NC(=O)[C@@H](C)NC(=O)[C@H](C)N(C)C(=O)[C@H](C(C)C)NC(=O)[C@H](Cc2ccc(-c3ccccc3)cc2)NC1=O` [Compound 1743] ({CH2CO}-[3Pal]YDWL[Bip]V[NMeA][dA]NLVSCG-NH2; thioether N-14) was run?
Answer: 0.02 µM

Question: How did the IC50 turn out when `CC(C)C[C@@H]1NC(=O)[C@H](CCCN)NC(=O)[C@@H](CC(C)C)NC(=O)[C@H](C)N(C)C(=O)[C@H](CCCNC(=N)N)NC(=O)[C@H](Cc2ccc(-c3ccccc3)cc2)NC(=O)[C@H](C(C)C)NC(=O)[C@H](Cc2c[nH]c3ccccc23)NC(=O)[C@H](CC(=O)O)NC(=O)[C@H](Cc2cnc[nH]2)NC(=O)[C@H](Cc2ccccc2)NC(=O)CSC[C@@H](C(=O)N[C@@H](C)C(N)=O)NC(=O)[C@H]([C@@H](C)O)NC(=O)[C@H](C(C)C)NC1=O` [Compound 1129] ({CH2CO}-FHDWV[Bip]R[NMeA][dL][Orn]LVTCA-NH2; thioether N-14) was run?
Answer: 0.09 µM

Question: `CC[C@H](C)[C@@H]1NC(=O)[C@H](Cc2ccc(-c3ccccc3)cc2)NC(=O)[C@H](C(C)C)NC(=O)[C@H](Cc2c[nH]c3ccccc23)NC(=O)[C@H](CC(=O)O)NC(=O)[C@H](Cc2cccc(OC)c2)NC(=O)[C@H](Cc2ccncc2)NC(=O)CSC[C@@H](C(=O)N[C@@H](C)C(N)=O)NC(=O)[C@H]([C@@H](C)O)NC(=O)[C@H](C(C)C)NC(=O)[C@H](CC(C)C)NC(=O)[C@H](CCN)NC(=O)[C@@H](CC(C)C)NC(=O)[C@H](C)N(C)C1=O` [Compound 1406] ({CH2CO}-[4Pal][Phe(3-OMe)]DWV[Bip]I[NMeA][dL][Dab]LVTCA-NH2; thioether N-14) was tested. Which IC50 did it give?
Answer: 0.02 µM

Question: For `CC[C@H](C)[C@@H]1NC(=O)[C@H](Cc2ccc(-c3ccccc3)cc2)NC(=O)[C@H](C(C)(C)O)NC(=O)[C@H](Cc2cccc(C)c2)NC(=O)[C@H](CC(=O)O)NC(=O)[C@H](Cc2ccc(O)cc2)NC(=O)[C@H](CC(N)=O)NC(=O)CSC[C@@H](C(=O)N[C@@H](CCN)C(N)=O)NC(=O)[C@H]([C@@H](C)O)NC(=O)[C@H](C(C)C)NC(=O)[C@H](CC(C)C)NC(=O)[C@H](CCN)NC(=O)[C@@H](CC(C)C)NC(=O)[C@H](C)N(C)C1=O` [Compound 1686] ({CH2CO}-NYD[Phe(3-Me)][Val(3-OH)][Bip]I[NMeA][dL][Dab]LVTC[Dab]-NH2; thioether N-14), which IC50 is on record?
Answer: 0.16 µM

Question: Which IC50 does the source give for `CC(C)C[C@@H]1NC(=O)[C@H](Cc2c[nH]c3ccccc23)NC(=O)[C@H](CC(=O)O)NC(=O)[C@H](Cc2ccc(OCC(=O)O)cc2)NC(=O)[C@H](Cc2ccc(OCC(=O)O)cc2)NC(=O)CSC[C@@H](C(=O)N[C@@H](C)C(N)=O)NC(=O)[C@H](CO)NC(=O)[C@H](C(C)C)NC(=O)[C@H](CC(C)C)NC(=O)[C@H](CCN)NC(=O)[C@@H](CC(C)C)NC(=O)[C@H](C)N(C)C(=O)[C@H](C(C)C)NC(=O)[C@H](Cc2ccc(-c3ccccc3)cc2)NC1=O` [Compound 2123] ({CH2CO}-Y(Carboxymethyl)Y(Carboxymethyl)DWL[Bip]V[NMeA][dL][Dab]LVSCA-NH2; thioether N-14) here?
Answer: 0.02 µM

Question: With `Cc1cccc(C[C@@H]2NC(=O)[C@H](CC(=O)O)NC(=O)[C@H](Cc3ccc(OCC(=O)O)cc3)NC(=O)[C@H](CN)NC(=O)CSC[C@@H](C(=O)N[C@@H](C)C(N)=O)NC(=O)[C@H]([C@@H](C)O)NC(=O)[C@H](C(C)C)NC(=O)[C@H](CC(C)C)NC(=O)[C@H](CCN)NC(=O)[C@@H](CC(C)C)NC(=O)[C@H](C)N(C)C(=O)[C@H](CCCNC(=N)N)NC(=O)[C@H](Cc3ccc(-c4ccccc4)cc3)NC(=O)[C@H](C(C)C)NC2=O)c1` [Compound 1456] ({CH2CO}-[Dap]Y(Carboxymethyl)D[Phe(3-Me)]V[Bip]R[NMeA][dL][Dab]LVTCA-NH2; thioether N-14) as the compound, how does the IC50 read?
Answer: 0.04 µM

Question: With `CC(C)C[C@@H]1NC(=O)[C@H](CCCNC(=N)N)NC(=O)[C@@H](CC(C)C)NC(=O)[C@H](C)N(C)C(=O)[C@H](CCCNC(=N)N)NC(=O)[C@H](Cc2ccc(-c3ccccc3)cc2)NC(=O)[C@H](C(C)C)NC(=O)[C@H](Cc2c[nH]c3c(Cl)cccc23)NC(=O)[C@H](CC(=O)O)NC(=O)[C@H](Cc2ccc(O)cc2)NC(=O)[C@H](Cc2ccccc2)NC(=O)CSC[C@@H](C(=O)N[C@@H](C)C(N)=O)NC(=O)[C@H]([C@@H](C)O)NC(=O)[C@H](C(C)C)NC1=O` [Compound 1098] ({CH2CO}-FYD[Trp(7-Cl)]V[Bip]R[NMeA][dL]RLVTCA-NH2; thioether N-14) as the compound, how does the IC50 read?
Answer: 0.13 µM

Question: Which IC50 does the source give for `CC(C)C[C@@H]1NC(=O)[C@H](CCN)NC(=O)[C@@H](CC(C)C)NC(=O)[C@H](C)N(C)C(=O)[C@H](CCCNC(N)=O)NC(=O)[C@H](Cc2ccc(-c3ccccc3)cc2)NC(=O)[C@H](C(C)C)NC(=O)[C@H](Cc2c[nH]c3ccccc23)NC(=O)[C@H](CC(=O)O)NC(=O)[C@H](Cc2ccc(O)cc2)NC(=O)[C@H](Cc2cnc[nH]2)NC(=O)CSC[C@@H](C(=O)N[C@@H](C)C(N)=O)NC(=O)[C@H]([C@@H](C)O)NC(=O)[C@H](C(C)C)NC1=O` [Compound 1356] ({CH2CO}-HYDWV[Bip][Cit][NMeA][dL][Dab]LVTCA-NH2; thioether N-14) here?
Answer: 0.02 µM

Question: `C#CC[C@H](NC(=O)[C@@H](C)NC(=O)[C@@H]1CSCC(=O)N[C@@H]([C@@H](C)O)C(=O)N[C@@H](Cc2ccc(OCC(=O)O)cc2)C(=O)N[C@@H](CC(=O)O)C(=O)N[C@@H](Cc2cccc(C)c2)C(=O)N[C@@H](Cc2ccc(OCC(=O)O)cc2)C(=O)N[C@@H](Cc2ccc(-c3ccccc3)cc2)C(=O)N[C@@H](Cc2ccc(OCC(=O)O)cc2)C(=O)N(C)[C@@H](C)C(=O)N[C@H](CC(C)C)C(=O)N[C@@H](CCN)C(=O)N[C@@H](CC2CCCCC2)C(=O)N[C@@H](C(C)(C)O)C(=O)N[C@@H](CCC(=O)O)C(=O)N1)C(=O)O` [Compound 1944] ({CH2CO}-TY(Carboxymethyl)D[Phe(3-Me)]Y(Carboxymethyl)[Bip]Y(Carboxymethyl)[NMeA][dL][Dab][Cha][Val(3-OH)]EC[dA][Pra]-OH; thioether N-14) was tested. Which IC50 did it give?
Answer: 0.9 µM

Question: `CC(C)C[C@@H]1NC(=O)[C@H](CCN)NC(=O)[C@@H](CC(C)C)NC(=O)[C@H](C)N(C)C(=O)[C@H](CCCNC(N)=O)NC(=O)[C@H](Cc2ccc(-c3ccccc3)cc2)NC(=O)[C@H](C(C)C)NC(=O)[C@H](Cc2c[nH]c3ccccc23)NC(=O)[C@H](CC(=O)O)NC(=O)[C@H](Cc2cccnc2)NC(=O)[C@H](CC(N)=O)NC(=O)CSC[C@@H](C(=O)N[C@@H](C)C(N)=O)NC(=O)[C@H]([C@@H](C)O)NC(=O)[C@H](C(C)C)NC1=O` [Compound 1318] ({CH2CO}-N[3Pal]DWV[Bip][Cit][NMeA][dL][Dab]LVTCA-NH2; thioether N-14) was tested. Which IC50 did it give?
Answer: 0.02 µM

Question: For `Cc1cccc(C[C@@H]2NC(=O)[C@H](CC(=O)O)NC(=O)[C@H](Cc3ccc(OCC(=O)O)cc3)NC(=O)[C@H](Cc3ccncc3)NC(=O)CSC[C@@H](C(N)=O)NC(=O)[C@H]([C@@H](C)O)NC(=O)[C@H](C(C)C)NC(=O)[C@H](CC3CCCCC3)NC(=O)[C@H](CCN)NC(=O)[C@@H](CC(C)C)NC(=O)[C@H](C)N(C)C(=O)[C@H](Cc3ccc(OCC(=O)O)cc3)NC(=O)[C@H](Cc3ccc(-c4ccccc4)cc3)NC(=O)[C@H](Cc3ccc(OCC(=O)O)cc3)NC2=O)c1` [Compound 1660] ({CH2CO}-[4Pal]Y(Carboxymethyl)D[Phe(3-Me)]Y(Carboxymethyl)[Bip]Y(Carboxymethyl)[NMeA][dL][Dab][Cha]VTC-NH2; thioether N-14), which IC50 is on record?
Answer: 0.02 µM

Question: With `Cc1cccc(C[C@@H]2NC(=O)[C@H](CC(=O)O)NC(=O)[C@H](Cc3ccc(OCC(=O)O)cc3)NC(=O)[C@H](CN)NC(=O)CSC[C@@H](C(N)=O)NC(=O)[C@H](CCCN)NC(=O)[C@H](C(C)C)NC(=O)[C@H](CC3CCCCC3)NC(=O)[C@H](CCN)NC(=O)[C@@H](CC(C)C)NC(=O)[C@H](C)N(C)C(=O)[C@H](Cc3ccc(OCC(=O)O)cc3)NC(=O)[C@H](Cc3ccc(-c4ccccc4)cc3)NC(=O)[C@H](Cc3ccc(OCC(=O)O)cc3)NC2=O)c1` [Compound 1646] ({CH2CO}-[Dap]Y(Carboxymethyl)D[Phe(3-Me)]Y(Carboxymethyl)[Bip]Y(Carboxymethyl)[NMeA][dL][Dab][Cha]V[Orn]C-NH2; thioether N-14) as the compound, how does the IC50 read?
Answer: 0.03 µM
